Experimental data published in US6403626B1, “Benzimidazole derivatives” (Synaptic Pharmaceutical Corporation, priority 1994, dated 2002).

Columns and labels:
rats = settings: systematic administration, reversed by atipamazole or idazoxan; cited from earlier work
[1] = molecular target: α2C Human Adrenergic Receptor (Homo sapiens, UniProt P18825); test: Equilibrium competition binding, [3H] rauwolscine, membranes of transfected LM(tk-) cells
[2] = molecular target: T1, α2B Human Adrenergic Receptor (Homo sapiens, UniProt P18089); assay type: cell-based
T1 construct: expressed in transfected cells; host or cells: Y-1 cells
T1 sequence (P18089 1-450): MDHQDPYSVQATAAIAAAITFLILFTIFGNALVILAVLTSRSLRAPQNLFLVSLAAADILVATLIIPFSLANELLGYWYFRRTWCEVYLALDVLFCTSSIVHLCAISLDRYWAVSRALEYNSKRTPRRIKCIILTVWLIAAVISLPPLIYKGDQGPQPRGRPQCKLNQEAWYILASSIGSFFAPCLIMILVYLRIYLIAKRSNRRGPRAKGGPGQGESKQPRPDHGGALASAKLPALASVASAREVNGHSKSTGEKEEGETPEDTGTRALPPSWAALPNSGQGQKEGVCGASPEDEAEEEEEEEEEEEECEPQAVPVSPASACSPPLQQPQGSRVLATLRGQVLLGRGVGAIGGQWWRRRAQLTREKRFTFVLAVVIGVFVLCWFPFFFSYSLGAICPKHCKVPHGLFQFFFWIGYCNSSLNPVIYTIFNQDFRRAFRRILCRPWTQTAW
Procedure: (§1) Binding and functional assays were performed using stably transfected human alpha adrenergic receptors. Equilibrium competition binding assays were performed with membrane preparations from cultured LM(tk-) cells stably transfected with the cloned human adrenoceptor subtypes except for α2b, which was expressed in Y-1 cells, using [^3H] prazosin for α1 receptors and [^3H] rauwolscine for α2 receptors.
Stable cell lines were selected as described above.
(§2) The agonist activity (expressed as pEC50) was measured as a function of the ability to inhibit the forskolin-stimulated synthesis of cyclic adenosine monophosphate (cAMP). The stably transfected cells were incubated in Ham's F10 with 5 mM theophylline, 10 mM HEPES, 10 μM pargyline, and/or appropriate concentrations of forskolin for 20 min at 37° C. in 5% CO2. The tested compounds were then added to a final concentration of 0.001 nM to 1 μM and incubated for an additional 15 min at 37° C. in 5% CO2. The medium was aspirated and the reaction was stopped by the addition of 100 mM HCl . […] The plates are stored at 4° C. for 15 min and assayed to determine the linear concentration of cAMP. The appropriate dilution is interpolated from the standard curve of cold cAMP. The assessment of cAMP formation is determined by radioimmunoassay (cAMP radioimmunoassay kit; Advanced Magnetics, Cambridge, Mass.). Radioactivity was quantified using a Packard COBRA Auto Gamma counter, equipped with data reduction software.

[3] = molecular target: T1, α2B Human Adrenergic Receptor; test: Equilibrium competition binding, [3H] rauwolscine, membranes of transfected Y-1 cells; settings: cloned human receptor; [3H] rauwolscine; read-out: pKi Alpha-2 B (converted)
[4] = molecular target: T2, α2C Human Adrenergic Receptor (Homo sapiens, UniProt P18825); assay type: cell-based; design: The entire coding region of α2C (1383 bp), including 2 bp of 5′ UT and 400 bp of 3′ UT; expressed in transfected cells; host or cells: LM(tk-) cells; settings: functional cAMP assay
T2 sequence (P18825 1-462): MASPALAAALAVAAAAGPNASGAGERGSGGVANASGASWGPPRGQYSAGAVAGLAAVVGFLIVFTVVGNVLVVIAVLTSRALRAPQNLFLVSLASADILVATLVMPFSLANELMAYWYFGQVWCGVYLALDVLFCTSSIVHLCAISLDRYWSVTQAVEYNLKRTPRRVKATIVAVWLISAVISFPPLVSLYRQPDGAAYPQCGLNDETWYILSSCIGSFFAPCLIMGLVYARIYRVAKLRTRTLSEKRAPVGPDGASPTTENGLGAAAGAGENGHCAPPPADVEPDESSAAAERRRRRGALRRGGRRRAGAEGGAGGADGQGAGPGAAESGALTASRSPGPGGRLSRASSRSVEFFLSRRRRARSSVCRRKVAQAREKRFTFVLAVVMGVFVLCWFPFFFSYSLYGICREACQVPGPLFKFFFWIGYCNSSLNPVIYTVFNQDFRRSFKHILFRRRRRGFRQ
Procedure: as §1
The insert housing this coding region was an @ 1.8 kb Ncol/EcoRI human spleen genomic fragment which was end-blunted by either T4 polymerase or Klenow fragment of DNA polymerase. Stable cell lines were selected as described above.
as §2

| SMILES | antinociception (rats) | Ki [1] [nM] | I.A Alpha-2 B ([2]; functional cAMP assay) | EC50 ([2]; inhibition of forskolin-stimulated cAMP, NA: Not Active, read-out: pEC50 Alpha-2 B (converted)) [nM] | Ki [3] [nM] | I.A Alpha-2 C [4] |
| --- | --- | --- | --- | --- | --- | --- |
| Cc1cccc(C(C)c2cnc[nH]2)c1C (stereo not drawn) [Medetomidine] | dose-dependent antinociception |  |  |  |  |  |
| Ic1cc(NC2=NCCN2)cc2[nH]cnc12 [Example 54, 7-Iodo-5-(2-imidazolin-2-ylamino)Benzimidazole] |  | 200 | 0.60 | 138 | 27.5 | 0.90 |
